This is an account of results in patent US12679839B2, “Cyclin-dependent kinase 7 (CDK7) non-covalent inhibitors” (JANSSEN PHARMACEUTICA NV, priority 2020, dated 2026).

The target in test [1] is T1, CDK7/Cyclin H/MAT-1 complex (Homo sapiens, UniProt P50613).
T1 construct: Human CDK7 (amino acids 1-346); His6 (N); TEV protease cleavage site (N); made in house; host or cells: baculovirus-SF9 insect cells
Nature of the test: Absorbance kinetic assay (20 nM CDK7/Cyclin H/MAT-1 complex). Type of test: biochemical. The note with it: read-out: CDK7 (20 nM) pIC50 (converted). The method, boiled down: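 Trimeric complex (His6-TEV CDK7 1-346, MAT1 1-309, cyclin H 1-323) from Sf9 cells, at 20 nM, phosphorylating RNA Pol II-derived CDK7/9-tide; ADP coupled via PK/LDH to NADH depletion read at 340 nm every 2 min for 8 h. Steady-state slopes gave % inhibition; IC50 from 11-point Hill fit.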

Test [2] deals with T1, CDK7/Cyclin H/MAT-1 complex. Nature of the test: Flint assay, end-point fluorescence (5 nM CDK7/Cyclin H/MAT-1 complex). Type of test: biochemical. Particulars: read-out: CDK7 (5 nM) pIC50 (converted). Summed up: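 Trimeric complex of His6-TEV-tagged human CDK7 (1-346), MAT1 (1-309) and cyclin H (1-323), co-expressed in Sf9 cells, at 5 nM final, with substrates and coupling reagents as in the absorbance assay; 24 h reaction. End-point NADH fluorescence decrease (ex 340/em 440 nm); % inhibition versus no-inhibitor and full-inhibition controls, IC50 from four-parameter Hill fit.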

SMILES strings stand for the structures. Some results are limits rather than exact numbers.

T1 sequence (P50613 whole entry, the tested form may be a part): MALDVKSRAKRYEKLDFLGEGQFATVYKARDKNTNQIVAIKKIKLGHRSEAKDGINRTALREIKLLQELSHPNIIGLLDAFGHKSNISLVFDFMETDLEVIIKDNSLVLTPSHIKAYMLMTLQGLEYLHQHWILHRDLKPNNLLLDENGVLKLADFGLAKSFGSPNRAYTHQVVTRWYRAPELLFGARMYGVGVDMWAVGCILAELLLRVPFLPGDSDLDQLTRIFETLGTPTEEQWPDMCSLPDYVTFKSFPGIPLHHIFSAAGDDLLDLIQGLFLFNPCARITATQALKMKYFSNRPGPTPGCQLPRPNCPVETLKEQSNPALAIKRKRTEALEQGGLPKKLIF
T1 sequence (P51946 whole entry partner, the tested form may be a part): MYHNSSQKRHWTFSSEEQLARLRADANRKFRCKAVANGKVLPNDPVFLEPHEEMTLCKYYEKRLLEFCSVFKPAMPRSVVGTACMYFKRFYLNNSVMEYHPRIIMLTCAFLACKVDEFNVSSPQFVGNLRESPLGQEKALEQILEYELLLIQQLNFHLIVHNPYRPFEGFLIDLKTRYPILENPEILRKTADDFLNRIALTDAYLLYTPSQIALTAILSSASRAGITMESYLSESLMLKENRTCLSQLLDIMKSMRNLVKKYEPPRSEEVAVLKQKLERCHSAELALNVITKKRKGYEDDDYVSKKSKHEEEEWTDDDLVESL
T1 sequence (P51948 whole entry partner, the tested form may be a part): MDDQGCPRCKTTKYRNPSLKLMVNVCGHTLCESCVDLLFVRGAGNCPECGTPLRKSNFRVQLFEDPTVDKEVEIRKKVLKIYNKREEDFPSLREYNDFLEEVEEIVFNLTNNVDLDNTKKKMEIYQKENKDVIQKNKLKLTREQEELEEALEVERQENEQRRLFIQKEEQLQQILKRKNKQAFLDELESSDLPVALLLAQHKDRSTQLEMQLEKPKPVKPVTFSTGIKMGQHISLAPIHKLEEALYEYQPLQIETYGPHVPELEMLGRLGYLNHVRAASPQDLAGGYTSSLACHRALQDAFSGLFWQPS

`C[C@@H]1Cc2cnc(NC3CCOCC3)nc2[C@H](C)N1C(=O)[C@H]1CCN(C)C[C@@H]1c1ccccc1` (single isomer, unassigned) [Compound 195b]: the results for the IC50 in test [1] and in test [2] were less than 9.77 nM and 4.9 nM, respectively.

For `C[C@@H]1Cc2cnc(N[C@H]3CCOC(C)(C)C3)nc2CN1C(=O)[C@H]1CCN(C)C[C@@H]1c1ccccc1` (relative stereo) [Compound 39], the IC50 in test [1] was less than 20 nM; in test [2], 5.01 nM.

As to `C[C@@H]1Cc2cnc(NCc3ccccc3)nc2CN1C(=O)[C@@H]1CCN(C)C[C@H]1C(F)(F)F` (relative stereo) [Compound 141], the results for the IC50 in test [1] and in test [2] were 39.8 nM and 8.51 nM, respectively.

Turning to `CO[C@H]1CC[C@H](Nc2ncc3c(n2)CN(C(=O)[C@@H]2CCN(C)C[C@H]2c2ccnc(C)c2)[C@H](C)C3)CC1` (relative stereo) [Compound 105], the IC50 in test [1] is less than 9.77 nM; in test [2] it was 10 nM.

Regarding `Cc1cc([C@@H]2CN(C)CC[C@H]2C(=O)N2Cc3nc(NC4CCOCC4)ncc3C[C@H]2C)ccn1` (relative stereo) [Compound 102], the IC50 in test [1] is 105 nM; in test [2], 19.5 nM.

As for `C[C@H]1CN(C(=O)[C@H]2CCN(C)C[C@@H]2c2ccccc2)[C@@H](C)c2nc(NC3CCOCC3)ncc21` (relative stereo) [Compound 181], the IC50 was 126 nM in test [1] and 105 nM in test [2].

As for `[2H]C([2H])([2H])N1CC[C@@H](C(=O)N2Cc3nc(NCc4ccn(C)n4)ncc3C[C@H]2C)[C@H](c2cccc(C)c2)C1` (single isomer, unassigned) [Compound 148], the values for the IC50 in test [1] and in test [2] were less than 9.77 nM and less than 2.51 nM, respectively.

In the case of `C[C@@H]1Cc2cnc(NC3CCOCC3)nc2CN1C(=O)[C@H]1CCN(C)C[C@@H]1c1ccc(Cl)cc1` (relative stereo) [Compound 132], the IC50 is 9.77 nM in test [1] and 3.63 nM in test [2].

Take `C[C@@H]1Cc2cnc(NCc3ccn(C)n3)nc2CN1C(=O)[C@H]1CCN(C)C[C@@H]1c1ccccc1C(F)F` (relative stereo) [Compound 139]: the IC50 in test [1] is 91.2 nM; in test [2], 49 nM.

Regarding `C[C@@H]1Cc2cnc(N[C@H]3CCCNC3)nc2CN1C(=O)[C@H]1CCN(C)C[C@@H]1C(F)(F)F` (relative stereo) [Compound 144], the IC50 in test [1] is less than 9.77 nM; in test [2], 10 nM.

On to `C[C@@H]1CN(C(=O)[C@H]2CCN(C)C[C@@H]2c2ccccc2)Cc2nc(NC3CCOCC3)ncc21` (relative stereo) [Compound 188], for which the IC50 in test [1] is less than 9.77 nM; in test [2], 2.82 nM.

For `[2H]C([2H])([2H])N1CC[C@H](C(=O)N2Cc3nc(NCc4ccccc4)ncc3C[C@H]2C)[C@@H](c2ccccc2)C1` (single isomer, unassigned) [Compound 154], the IC50 in test [1] was less than 9.77 nM; in test [2], 2.51 nM.

Turning to `CC1CN(C(=O)[C@H]2CCN(C)C[C@@H]2c2ccccc2)Cc2nc(Nc3cnn(C)c3)ncc21` (mixture of isomers) [Compound 194], the IC50 in test [1] was 17.8 nM; in test [2], 6.17 nM.

Regarding `C[C@@H]1Cc2cnc(NC3CCOCC3)nc2CN1C(=O)[C@H]1CCN(C)C[C@@H]1C` (relative stereo) [Compound 146], the IC50 in test [1] is 11.5 nM; in test [2] it was 17.4 nM.

Turning to `CN1CC[C@H](C(=O)N2Cc3nc(NC4CCOCC4)ncc3CC2(C)C)[C@@H](c2ccccc2)C1` (relative stereo) [Compound 189], the IC50 was 17.8 nM in test [1] and 22.4 nM in test [2].

Regarding `C[C@@H]1CN(C)CC[C@H]1C(=O)N1Cc2nc(NC3CCOCC3)ncc2C[C@H]1C` (relative stereo) [Compound 145], the IC50 was 67.6 nM in test [1] and 100 nM in test [2].

`Cc1cccc([C@H]2CN(C)CC[C@@H]2C(=O)N2Cc3nc(NC4CCOCC4)ncc3C[C@H]2C)c1` (relative stereo) [Compound 134]: the values for the IC50 in test [1] and in test [2] were less than 9.77 nM and 3.16 nM, respectively.

On to `C[C@@H]1Cc2cnc(NCc3ccn(C)n3)nc2CN1C(=O)[C@H]1CCN(C)C[C@@H]1C(F)(F)F` (relative stereo) [Compound 143], for which the IC50 was less than 9.77 nM in test [1] and 8.91 nM in test [2].

`Cc1cccc([C@@H]2CN(C)CC[C@H]2C(=O)N2Cc3nc(NCc4ccn(C)n4)ncc3C[C@H]2C)c1` (relative stereo) [Compound 136]: the IC50 in test [1] is 11.5 nM; in test [2] it was 15.8 nM.

With `C[C@@H]1Cc2cnc(NC3CCOCC3)nc2CN1C(=O)[C@H]1CCN(C)C[C@@H]1c1cccc(F)c1` (relative stereo) [Compound 133], the IC50 in test [1] was 12.3 nM; in test [2], 8.13 nM.

Consider `C[C@@H]1Cc2cnc(N[C@@H]3CCC(=O)N(C)C3)nc2CN1C(=O)[C@H]1CCN(C)C[C@@H]1c1ccccc1` (relative stereo) [Compound 6], for which the IC50 was less than 9.77 nM in test [1] and 3.8 nM in test [2].

Turning to `C[C@@H]1Cc2cnc(NCc3ccn(C)n3)nc2CN1C(=O)[C@H]1CCN(C)C[C@@H]1c1cccc(C(F)(F)F)c1` (relative stereo) [Compound 129], the IC50 in test [1] was 11.7 nM; in test [2], 4.9 nM.
